Assay results: US7553871B2, “Fatty acid antimicrobial” (GEA WestfaliaSurge, Inc., priority 1996, dated 2009)

Legend:
Assay type in all cases: cell-based
Staphylococcus aureus [1] = test: Excised dairy cow teat dip test (Example 2); settings: Staphylococcus aureus on excised cow teats; dipped, drained ten minutes; log mean CFU/ml vs negative control
Experimental: (§1) Another set of in vitro tests were run on Staphylococcus aureus, Escherichia coli, and Streptococcus uberis. A culture of the microorganism was first prepared according to the following procedure. Six to ten milliliters of trypticase soy broth was inoculated with the organism under consideration from a frozen or refrigerated stock. After incubation for five to seven hours at 37° C., the culture was transferred to a flask containing 200 milliliters of trypticase soy broth. The culture in the flask was then incubated on a gyratory shaker at approximately 1500 rpm overnight at 37° C. The next day, the culture in the flask is washed once in PBS or 0.1% protease peptone, and stored at approximately 4° C. until required.
(§2) The tests were run using dairy cow teats which had been obtained from a slaughter house. The teats were cut off at their connection to the udder, cleaned, and all hair was removed by using an open flame. The teats selected for the testing were screened for lesions, cuts, scars or other abnormalities. The teats were stored until needed in plastic bags in ice at a temperature below freezing. […]
(§3) Countable dilutions were plated on appropriate media, and incubated from 24 to 48 hours at 37° C. The colonies were counted macroscopically with the aid of fluorescent light. Non-typical colonies were not counted. […]

Escherichia coli [2] = test: Excised dairy cow teat dip test (Example 2); settings: Escherichia coli on excised cow teats; dipped, drained ten minutes; log mean CFU/ml vs negative control
Experimental: as §1, §2, §3

Escherichia coli [3] = test: In vitro suspension kill test, 1 minute contact at 37° C., survivors plated (Examples 1, 5); settings: 1 minute at 37° C.
Experimental: (§4) A set of in vitro tests was run on Staphylococcus aureus, Escherichia coli, Streptococcus agalactiae, Streptococcus uberis, Staphylococcus epidermidis, and Pseudomonas aeruginosa. A culture of the microorganism was first prepared according to the following procedure. Six to ten milliliters of trypticase soy broth was inoculated with the organism under consideration from a frozen or refrigerated stock. After incubation for five to seven hours at 37° C., the culture was transferred to a flask containing trypticase soy broth. The culture in the flask was then incubated on a gyratory shaker at approximately 1500 rpm overnight at 37° C. The next day, the culture in the flask is washed once in phosphate buffered saline solution (PBS) and stored at approximately 4° C. until needed. […]
(§5) The surviving bacteria suspended in quencher solution were then diluted with PBS and plated on appropriate media, for example, MacConkey for Escherichia coli, Staph 110 for Staphylococcus, and trypticase soy agar with 6% Sheep's blood for Streptococcus. The plates were incubated 24 to 48 hours at 37° C. and counted. The surviving organisms were expressed as colony forming units (CFU)/ml, and compared to the negative control as percent survival. […]

Streptococcus agalactiae = test: In vitro suspension kill test, 1 minute contact at 37° C., survivors plated (Example 1); settings: diluted with organic load (1:1 with whole milk)
Experimental: (§6) A set of in vitro tests was run on Staphylococcus aureus, Escherichia coli, Streptococcus agalactiae, Streptococcus uberis, Staphylococcus epidermidis, and Pseudomonas aeruginosa. A culture of the microorganism was first prepared according to the following procedure. Six to ten milliliters of trypticase soy broth was inoculated with the organism under consideration from a frozen or refrigerated stock. After incubation for five to seven hours at 37° C., the culture was transferred to a flask containing trypticase soy broth. The culture in the flask was then incubated on a gyratory shaker at approximately 1500 rpm overnight at 37° C. The next day, the culture in the flask is washed once in phosphate buffered saline solution (PBS) and stored at approximately 4° C. until needed.
(§7) To test a specific antimicrobial's efficacy, ten milliliters of the culture was transferred to a 15 milliliter centrifuge tube and centrifuged at approximately 600 to 700 g for approximately five to ten minutes. After decanting the supernatant, ten milliliters of the antimicrobial (or PBS in the negative, or untreated, control) was added, and the centrifuge tube vortexed to suspend the bacteria. In those tests involving “organic loads”, a 1:1 dilution of the antimicrobial with whole milk was made before addition to the cultured microorganism to simulate conditions the product may have to experience in a real life environment, such as on a cow's teat.
(§8) The tube was then placed in a 37° C. water bath for 1 minute. The tube was centrifuged again at approximately 600 to 700 g for approximately five to ten minutes, and the supernatant decanted. The remaining precipitate was then suspended in a quencher solution containing letheen broth, 1% sodium thiosulfate and 0.2 mM CaCl2. The tube was centrifuged at approximately 600 to 700 g for approximately five to ten minutes, decanted and washed a second time in the quencher solution.
(§9) The surviving bacteria suspended in quencher solution were then diluted with PBS and plated on appropriate media, for example, MacConkey for Escherichia coli, Staph 110 for Staphylococcus, and trypticase soy agar with 6% Sheep's blood for Streptococcus. The plates were incubated 24 to 48 hours at 37° C. and counted. The surviving organisms were expressed as colony forming units (CFU)/ml, and compared to the negative control as percent survival.

[4] = tested on: Staphylococcus epidermidis; test: as above; settings: diluted with organic load (1:1 with whole milk)
Experimental: as §6, §7, §8, §9

Streptococcus uberis = test: as above; settings: diluted with organic load (1:1 with whole milk)
Experimental: as §6, §7, §8, §9

Pseudomonas aeruginosa = test: as above; settings: diluted with organic load (1:1 with whole milk)
Experimental: as §6, §7, §8, §9

Staphylococcus aureus [5] = test: In vitro suspension kill test, 1 minute contact at 37° C., survivors plated (Examples 1, 4, 5); settings: 1 minute at 37° C.
Experimental: as §4, §5

[6] = diluted with organic load (1:1 with whole milk)

Compound: [O][Cl+][O-] [chlorine dioxide]
- Percent Log Reduction (Staphylococcus aureus [1]): 33.90%
- Percent Log Reduction (Escherichia coli [2]): 22%
- Percent Survival (Escherichia coli [3]; [6]): 0%
- Percent Survival (Escherichia coli [3]; undiluted antimicrobial): 0%
- Percent Survival (Streptococcus agalactiae): 0%
- Percent Survival [4]: 5%
- Percent Survival (Streptococcus uberis): 5.19%
- Percent Survival (Pseudomonas aeruginosa): 0%
- Percent Survival (Staphylococcus aureus [5]; [6]): 16.96%
- Percent Survival (Staphylococcus aureus [5]; undiluted antimicrobial, CFU/ml compared to negative control): 0%
